Assay results: patent publication EP0103381B1, “Substituted anthra(1,9-cd)pyrazol-6(2H)-ones” (WARNER-LAMBERT COMPANY, priority 1982, dated 1984)

How the values were obtained:
[1] = test system: lymphocytic leukemia P388; experiment: in vivo lymphocytic leukemia P388 test; set-up: species or system mice; conditions: Mus musculus, P388, ip, 720 h, two single doses four days apart, read-out: T/C × 100 (Percent)
In short: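 CD2F mice (6–7 per group) were inoculated intraperitoneally with P388 leukemia ascitic cells. Compounds were then given i.p. as two doses four days apart at various levels. Survival over 30 days was expressed as treated/control time ratio, efficacy criterion T/C×100 >125%.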

ADJ—PC6 Plasmacytoma = experiment: broad spectrum antitumor activity in mice, ADJ-PC6 plasmacytoma; format: in vivo; conditions: IP/IP
Text: (§1) Broad Spectrum Antitumor Activity^* of 2-[2-(Diethylamino)ethyl]-7,10-dihydroxy-5-[[2-[(2-hydroxyethyl)amino]ethyl]amino]anthra[1-9-cd]pyrazol-6(2H)-one Dihydrochloride in Mice

L1210 Leukemia (CDF1) = experiment: broad spectrum antitumor activity in mice, L1210 leukemia; format: in vivo; conditions: IP/IP
Text: as §1

## CCN(CC)CCn1nc2c3c(c(NCCNCCO)ccc31)C(=O)c1c(O)ccc(O)c1-2 [Example 28, 2-[2-(Diethylamino)ethyl]-7,10-dihydroxy-5-[[2-[(2-hydroxyethyl)amino]ethyl]amino]anthra[1,9-cd]pyrazol-6(2H)-one]
[1]; P388, Dose 0.78 mg/kg intraperitoneally
  response vs control in vivo at 0.78 mg/kg: 140%
[1]; P388, Dose 1.56 mg/kg intraperitoneally
  response vs control in vivo at 1.56 mg/kg: 148%
[1]; P388, Dose 3.12 mg/kg intraperitoneally
  response vs control in vivo at 3.12 mg/kg: 164%
[1]; P388, Dose 6.25 mg/kg intraperitoneally
  response vs control in vivo at 6.25 mg/kg: 180%
ADJ—PC6 Plasmacytoma; Q04D × 03, Dose 2 mg/kg
  T/C × 100 (Percent): 207%
ADJ—PC6 Plasmacytoma; Q04D × 03, Dose 4 mg/kg
  T/C × 100 (Percent): 216%
ADJ—PC6 Plasmacytoma; Q04D × 03, Dose 8 mg/kg
  T/C × 100 (Percent): 235%
ADJ—PC6 Plasmacytoma; Q04D × 03, Dose 16 mg/kg
  T/C × 100 (Percent): 163%
L1210 Leukemia (CDF1); Q01D × 09, Dose 1 mg/kg
  T/C × 100 (Percent): 137%
L1210 Leukemia (CDF1); Q01D × 09, Dose 2 mg/kg
  T/C × 100 (Percent): 144%
L1210 Leukemia (CDF1); Q01D × 09, Dose 4 mg/kg
  T/C × 100 (Percent): 178%
L1210 Leukemia (CDF1); Q01D × 09, Dose 8 mg/kg
  T/C × 100 (Percent): 240%
L1210 Leukemia (CDF1); Q01D × 09, Dose 16 mg/kg
  T/C × 100 (Percent): 133%
